Laboratory results as given in PMC7403827 (Clinical and Translational Medicine, 2020).

Test: Adverse events (CTCAE 4.0) under apatinib plus gefitinib
Assay type: in vivo, human
Settings: Apatinib 250 mg Cohort (n = 7), with gefitinib 250 mg; treatment‐related AE, patients (%)

With `N#CC1(c2ccc(NC(=O)c3cccnc3NCc3ccncc3)cc2)CCCC1` [Apatinib] the “Abdominal distention, ALL” value was 2 (28.6%), the “Abdominal distention, Grade 1–2” value was 2 (28.6%) and the “Abdominal distention, Grade 3–4” value was 0. For the same molecule, the “Blurred vision, ALL” value was 0, the “Blurred vision, Grade 1–2” value was 0 and the “Blurred vision, Grade 3–4” value was 0. The “Cough, ALL” value was 4 (57.1%), the “Cough, Grade 1–2” value was 4 (57.1%) and the “Cough, Grade 3–4” value was 0. For the same molecule, the “Diarrhea, ALL” value was 5 (71.4%), the “Diarrhea, Grade 1–2” value was 5 (71.4%) and the “Diarrhea, Grade 3–4” value was 0. For the same molecule, the “Dizziness, ALL” value was 0, the “Dizziness, Grade 1–2” value was 0 and the “Dizziness, Grade 3–4” value was 0. The “Dry skin, ALL” value was 2 (28.6%), the “Dry skin, Grade 1–2” value was 2 (28.6%) and the “Dry skin, Grade 3–4” value was 0. For the same molecule, the “Dysgeusia, ALL” value was 1 (14.3%), the “Dysgeusia, Grade 1–2” value was 1 (14.3%) and the “Dysgeusia, Grade 3–4” value was 0. For the same molecule, the “Eczema, ALL” value was 1 (14.3%), the “Eczema, Grade 1–2” value was 1 (14.3%) and the “Eczema, Grade 3–4” value was 0. The “Elevated ALT, ALL” value was 3 (42.9%), the “Elevated ALT, Grade 1–2” value was 2 (28.6%) and the “Elevated ALT, Grade 3–4” value was 1 (14.3%). For the same molecule, the “Elevated AST, ALL” value was 2 (28.6%), the “Elevated AST, Grade 1–2” value was 1 (14.3%) and the “Elevated AST, Grade 3–4” value was 1 (14.3%). The “Epistaxis, ALL” value was 3 (42.9%), the “Epistaxis, Grade 1–2” value was 3 (42.9%) and the “Epistaxis, Grade 3–4” value was 0. The “Fatigue, ALL” value was 2 (28.6%), the “Fatigue, Grade 1–2” value was 2 (28.6%) and the “Fatigue, Grade 3–4” value was 0. The “Gastrointestinal bleeding, ALL” value was 1 (14.3%), the “Gastrointestinal bleeding, Grade 1–2” value was 1 (14.3%) and the “Gastrointestinal bleeding, Grade 3–4” value was 0. The “HFSR, ALL” value was 2 (28.6%), the “HFSR, Grade 1–2” value was 2 (28.6%) and the “HFSR, Grade 3–4” value was 0. The “Haematuria, ALL” value was 1 (14.3%), the “Haematuria, Grade 1–2” value was 1 (14.3%) and the “Haematuria, Grade 3–4” value was 0. The “Headache, ALL” value was 1 (14.3%), the “Headache, Grade 1–2” value was 1 (14.3%) and the “Headache, Grade 3–4” value was 0. For the same molecule, the “Hematochezia, ALL” value was 1 (14.3%), the “Hematochezia, Grade 1–2” value was 1 (14.3%) and the “Hematochezia, Grade 3–4” value was 0. For the same molecule, the “Hypertension, ALL” value was 5 (71.4%), the “Hypertension, Grade 1–2” value was 4 (57.1%) and the “Hypertension, Grade 3–4” value was 1 (14.3%). The “Increased bilirubin, ALL” value was 1 (14.3%), the “Increased bilirubin, Grade 1–2” value was 1 (14.3%) and the “Increased bilirubin, Grade 3–4” value was 0. For the same molecule, the “Increased creatinine, ALL” value was 0, the “Increased creatinine, Grade 1–2” value was 0 and the “Increased creatinine, Grade 3–4” value was 0. The “Leukopenia, ALL” value was 0, the “Leukopenia, Grade 1–2” value was 0 and the “Leukopenia, Grade 3–4” value was 0. For the same molecule, the “Nausea, ALL” value was 0, the “Nausea, Grade 1–2” value was 0 and the “Nausea, Grade 3–4” value was 0. For the same molecule, the “Neutropenia, ALL” value was 0, the “Neutropenia, Grade 1–2” value was 0 and the “Neutropenia, Grade 3–4” value was 0. For the same molecule, the “Oulorrhagia, ALL” value was 3 (42.9%), the “Oulorrhagia, Grade 1–2” value was 3 (42.9%) and the “Oulorrhagia, Grade 3–4” value was 0. The “Paronychia, ALL” value was 1 (14.3%), the “Paronychia, Grade 1–2” value was 1 (14.3%) and the “Paronychia, Grade 3–4” value was 0. For the same molecule, the “Periodontitis, ALL” value was 1 (14.3%), the “Periodontitis, Grade 1–2” value was 1 (14.3%) and the “Periodontitis, Grade 3–4” value was 0. The “Pharyngalgia, ALL” value was 1 (14.3%), the “Pharyngalgia, Grade 1–2” value was 1 (14.3%) and the “Pharyngalgia, Grade 3–4” value was 0. For the same molecule, the “Pneumonia (non‐interstitial), ALL” value was 1 (14.3%), the “Pneumonia (non‐interstitial), Grade 1–2” value was 1 (14.3%) and the “Pneumonia (non‐interstitial), Grade 3–4” value was 0. For the same molecule, the “Proteinuria, ALL” value was 3 (42.9%), the “Proteinuria, Grade 1–2” value was 2 (28.6%) and the “Proteinuria, Grade 3–4” value was 1 (14.3%). For the same molecule, the “Pruritus, ALL” value was 0, the “Pruritus, Grade 1–2” value was 0 and the “Pruritus, Grade 3–4” value was 0. The “Rash, ALL” value was 5 (71.4%), the “Rash, Grade 1–2” value was 5 (71.4%) and the “Rash, Grade 3–4” value was 0. For the same molecule, the “Stomatitis, ALL” value was 2 (28.6%), the “Stomatitis, Grade 1–2” value was 2 (28.6%) and the “Stomatitis, Grade 3–4” value was 0. For the same molecule, the “Thrombocytopenia, ALL” value was 0, the “Thrombocytopenia, Grade 1–2” value was 0 and the “Thrombocytopenia, Grade 3–4” value was 0. The “Trachyphonia, ALL” value was 2 (28.6%), the “Trachyphonia, Grade 1–2” value was 2 (28.6%) and the “Trachyphonia, Grade 3–4” value was 0. The “Vomiting, ALL” value was 0, the “Vomiting, Grade 1–2” value was 0 and the “Vomiting, Grade 3–4” value was 0.
